The record followed here is PubChem BioAssay (NCI).

Where “and” joins values, the source holds several entries; their conditions need not be identical. Identical values can stand only once.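 Method: 48-hour compound exposure of cells in 96-well plates, five concentrations, linear interpolation of endpoints. The concentration for 50% growth inhibition is given as GI50. TGI is the concentration that stops growth completely.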

What all share (assay): NCI tumour cell line growth inhibition, 48 h
The subject of assay [1] is IGROV1 ovarian.
For assay [2], the system named is A498 renal.
Assay [3] has as its system OVCAR-5 ovarian.
Assay [4] concerns NCI-H226 lung.
Assay [5] concerns SK-MEL-5 melanoma.
Assay [6] concerns HT29 colon.
Assay [7] has as its system OVCAR-3 ovarian.
Assay [8] concerns CAKI-1 renal.
Assay [9] relates to KM12 colon.

For `CCOC(=O)C(CS)NC(=O)CCCCCCCC(=O)NC(CS)C(=O)OCC` (stereo not drawn), the TGI in [1], in assay [2], in assay [3], in assay [4], in assay [5] and in assay [6] was more than 100 µM each time. Also, the TGI in assay [7], in assay [8] and in assay [9] was more than 100 µM in each case.

Consider `CC(=O)c1cc2c(s1)C(=O)c1ccccc1C2=O`, for which the TGI in assay [1] is 5.5 µM; in assay [2], more than 66.8 µM; in [3], 20.6 µM; in [4] it was 11.4 µM; in assay [5], 0.588 µM; in [6], 21.4 µM. Also, the TGI is 11.1 µM in assay [7], 37 µM in assay [8] and 11.5 µM in [9].

Turning to `C=CC[C@@]1(C(=O)OC)[C@H](Sc2ccccc2)C1(C)C`, the TGI in [1] is more than 100 µM; in [2], more than 100 µM; in [3], more than 100 µM; in assay [4] it was more than 100 µM; in [5], 44.3 µM; in [6], more than 100 µM. Further, the TGI in assay [7], in [8] and in assay [9] was more than 100 µM throughout.

In the case of `O=C(N[C@H]1c2ccsc2/C(=N/O)[C@H]1O)C(F)(F)F`, the TGI in assay [1], in assay [2], in assay [3], in [4], in assay [5] and in assay [6] was more than 100 µM in each case. Further, the TGI in [7] and in [8] was more than 100 µM each time.

On to `CSc1cc(N)ccc1N=Nc1ccc(S(N)(=O)=O)cc1`, for which the TGI in [1] is 72.3 µM; in assay [2], more than 100 µM; in [3], more than 100 µM; in [4], 50.4 µM; in [5] it was 30.6 µM; in assay [6] it was more than 100 µM. The TGI in assay [7] was 68.5 µM; in [8] it was more than 100 µM; in [9], 92.2 µM.

In the case of `Cc1c(NC2(C)C(=O)N(/N=C/c3ccccc3)N=C2c2ccccc2)n[nH]c1-c1ccccc1` (stereo not drawn), the TGI in assay [1], in assay [2], in assay [3], in [4], in [5] and in assay [6] was more than 100 µM throughout. In addition, the TGI in assay [7], in [8] and in assay [9] was more than 100 µM each time.

For the compound `C[C@]12CC[C@@H]3c4ccc(OC(=O)c5ccccc5)cc4CC[C@H]3[C@@H]1CC[C@@H]2Oc1c2ccccc2nc2ccccc12`, the TGI in [1] was 42.4 µM; in assay [2], more than 50 µM; in [3], more than 50 µM; in [4] it was 48 µM; in assay [5] it was 18.5 µM; in assay [6] it was 12.6 µM. In addition, the TGI in assay [7] was 14.8 µM; in assay [8], 21.6 µM; in [9], 44 µM.

`Cc1ccc(-c2n[nH]c(=O)[nH]2)cc1[N+](=O)[O-]`: the TGI in assay [1], in assay [2], in assay [3], in [4], in assay [5] and in assay [6] was more than 100 µM in each case. Besides, the TGI in [7], in assay [8] and in assay [9] was more than 100 µM each time.

As for `COC(=O)[C@@H]1C[C@@]2(C3C=CN(C(=O)C(F)(F)F)C=C3)c3ccccc3N(C(=O)C(F)(F)F)[C@H]2N1C(=O)OC`, the TGI in assay [1], in [2], in assay [3], in assay [4], in assay [5] and in assay [7] was more than 100 µM in each case. For the same compound, the TGI in assay [8] and in assay [9] was more than 100 µM in each case.

Turning to `COc1c(C)c(OC)c2c(c1O)[C@@H]1[C@@H]3Cc4c(OC)c(C)c(OC)c(O)c4[C@H](CNC(=O)c4cnc5ccccc5n4)N3[C@@H](C#N)[C@H](C2)N1C`, the TGI was 0.00894 µM in [2]; more than 0.1 µM in [3]; 0.00622 µM in assay [4]; 0.0187 µM in assay [5]; 0.0168 µM in assay [7]; more than 0.0391 µM in assay [8]. This compound also returned a TGI in assay [9] of 0.00382 µM.

In the case of `COc1ccc2nc3cc(Cl)ccc3c(NCCNCCCNC(=O)c3cc(-c4ccccc4)nc4ccccc34)c2c1`, the TGI in assay [1], in [2], in [3], in assay [4], in assay [5] and in assay [6] was more than 100 µM each time. Besides, the TGI in assay [7], in [8] and in assay [9] was more than 100 µM throughout.

As for `COc1cc(C2S/C(=C/c3ccccc3)C(=O)N2c2ccc(Cl)c(Cl)c2)cc(OC)c1OC` (stereo not drawn), the TGI in assay [1] is more than 100 µM; in [2] it was more than 82.4 µM; in assay [3], more than 100 µM; in [4], more than 100 µM; in assay [5] it was more than 100 µM; in assay [6], more than 100 µM. The figures for the TGI in assay [7], in assay [8] and in [9] were more than 100 µM, more than 100 µM and more than 70.3 µM, respectively.

For the compound `COc1ccc2c(c1)/c(=C/c1ccc(N(C)C)cc1)c1cc(-c3ccccc3)[n+](C)n12`, the TGI was 0.543 µM in [1]; 2.75 µM in [2]; 3.17 µM in assay [3]; 0.785 µM in [4]; 1.06 µM in assay [5]; 0.566 µM and 0.982 µM in [6]. The figures for the TGI in assay [8] and in assay [9] were 5.64 µM and 1.71 µM, respectively. Further, the GI50 in [6] was 0.0753 µM.

For `CC(=O)O[C@H]1C(=O)[C@@]2(C)[C@H]([C@H](OC(=O)c3ccccc3)[C@]3(O)C[C@H](OC(=O)[C@H](O)[C@@H](NC(=O)CC(C)(C)C)c4ccccc4)C(C)=C1C3(C)C)C1(OC(C)=O)CO[C@@H]1C[C@@H]2O` (stereo partly drawn), the TGI in assay [1] was more than 10 µM; in assay [2] it was more than 10 µM; in [3], more than 2.93 µM; in assay [4], more than 5.23 µM; in [5], more than 10 µM; in assay [6], 0.0133 µM. Besides, the TGI in assay [8] is more than 10 µM.

As to `O=C(NCCCNCCNC(=O)c1cc(-c2ccccc2)nc2ccccc12)c1cc(-c2ccccc2)nc2ccccc12`, the TGI in [1] is 3.59 µM; in assay [2], 4.76 µM; in [4], 5.05 µM; in [5], 3.03 µM; in assay [6], 2.91 µM; in assay [7], 3.6 µM. Besides, the figures for the TGI in assay [8] and in [9] were 5.45 µM and 3.55 µM, respectively.
